Experimental data as given in patent US10047036B2, “Method for the synthesis of hydroxy-triglycerides and uses thereof for the prevention and treatment of diseases” (UNIVERSITAT DE LES ILLES BALEARS, priority 2014, dated 2018).

Experiments:
A549 (lung) = assay: growth inhibition of human tumour cells, 72 h incubation; assay type: cell-based; settings: 72 hours of incubation
Protocol: (§1) On the one hand, human cells of different types of cancer were used. The cells were incubated at 37° C. and 5% of CO2 in air, in culture medium RPMI1640 or DMEM with bovine foetal serum (10%) and other supplements and in the presence or absence of the triglycerides of the present invention at different concentrations during 72 hours. It was possible to observe that the hydroxy-triglycerides of the invention have a high efficacy against the growth of human tumour cells, but not against the growth of normal non-tumour cells (human fibroblasts, MRC5).

HepG2 (liver carcinoma) = assay: as above; assay type: cell-based; settings: 72 hours of incubation
Protocol: as §1

HT-29 (colon) = assay: as above; assay type: cell-based; settings: 72 hours of incubation
Protocol: as §1

SH-SY5Y (neuroblastoma) = assay: as above; assay type: cell-based; settings: 72 hours of incubation
Protocol: as §1

U87M (glioma) = assay: as above; assay type: cell-based; settings: 72 hours of incubation
Protocol: as §1

MIA-PaCa-2 (pancreas) = assay: as above; assay type: cell-based; settings: 72 hours of incubation
Protocol: as §1

SF767 (glioma) = assay: as above; assay type: cell-based; settings: 72 hours of incubation
Protocol: as §1

HeLa (cervix) = assay: as above; assay type: cell-based; settings: 72 hours of incubation
Protocol: as §1

BXPC3 (pancreas) = assay: as above; assay type: cell-based; settings: 72 hours of incubation
Protocol: as §1

NCI1975D (lung) = assay: as above; assay type: cell-based; settings: 72 hours of incubation
Protocol: as §1

MDA-MB231 (breast) = assay: as above; assay type: cell-based; settings: 72 hours of incubation
Protocol: as §1

[1] = system: Jurkat (lymphoblastic leukaemia); assay: as above; assay type: cell-based; settings: 72 hours of incubation
Protocol: as §1

PC3 (prostate) = assay: as above; assay type: cell-based; settings: 72 hours of incubation
Protocol: as §1

body weight of SHR rats = assay type: in vivo; settings: 14 days, 600 mg/kg, 12 h, p.o., basal weight 342 grams
Source text: Metabolic and cardiovascular pathologies are closely related. The overfeeding which characterises our society not only gives rise to problems of obesity and excess weight. It is also linked to the appearance of diabetes, dyslipidaemia, hypertension, strokes, arteriosclerosis, ictus, etc. All of these pathologies increase the risk of premature death and can even cause death. In this sense, certain natural oils show a certain efficacy against this type of pathologies, but their power is limited. In contrast, the molecules of the invention have an important effect against the development of this type of pathologies. To be able to study the effects of the compounds of the invention for the prevention and treatment of metabolic and cardiovascular pathologies, hypertensive rats were used (SHR strain, spontaneously hypertensive rats). These rats present obesity, high blood pressure, dyslipidaemia (hypercholesterolemia and hypertriglyceridemia), diabetes, metabolic syndrome and other related health problems.

[2] = system: Drosophila melanogaster flies with human Alzheimer's genes (F1); assay: geotaxis (climbing) test in Drosophila melanogaster with Alzheimer's disease; assay type: in vivo; settings: 100 μM in the food; for Geotaxis: age at which the animals showed a geotaxis of nil: no fly passes the line
Source text: To investigate the effect of TGMs on the cognitive parameters and aging, another model of Alzheimer's disease in Drosophila melanogaster flies with genetic alterations corresponding to human Alzheimer's was used. The flies used were the first generation (F1) from the crossing of UAS-Aβ human-Tau 2N4R (stock 33771) flies with elav-GAL4^c155 (stock 8760) flies. This model which over-expresses the two proteins typical of Alzheimer's disease is complementary to the model described above and very convenient, as these animals have a life of approximately 1 month and it is possible to add the compounds to the food of the larvae to see the preventative effect thereof throughout their entire life. Also, it allows the effect on aging to be seen and on the life expectancy of these animals (survival over time).
In this sense, the flies with human Alzheimer's (F1) present a greater cognitive decline in comparison to the “Oregon” fly strain, which are the healthy controls. To evaluate the effect of the hydroxy-triglycerides of the invention, each one of the TGMs (100 μM) was added to the food consumed by these animals. It was possible to observe a positive effect of same in the geotaxis test of climbing (FIG. 7B and Table 11). In this test, the behavioural motor activity was investigated in 25 flies treated with vehicle or one of the TGMs. In this study, the flies were introduced in a glass cylinder with an opening closed with a sponge so air could enter. The flies were taken to the ground (bottom) of the pipe by giving it a sharp blow on a table and their behaviour was timed during 20 seconds. Once this time was over, the number of flies which had passed (crossed) a mark at 15 cm from the bottom was counted (geotaxis test). Usually, more than 90% of healthy young flies passed the line within 20 seconds. However, with aging or with Alzheimer's disease, the behavioural motor activity (percentage of flies which crossed the line) declined, compared to normal flies. In this context, the treatments with the hydroxy-triglycerides of the present invention avoided this cognitive decline associated to Alzheimer's, making the cognitive capacity of the diseased flies similar to that of the healthy flies. […] This positive effect on the cognitive parameters in flies was also shown by other TGMs (Table 11). In fact, in the control group with Alzheimer, no fly crossed the line as of 23 days of age. In this sense, the different hydroxy-triglycerides induced marked increases in the geotaxis test values, with increases in the cognitive values which reached up to 36 days, 50% more in the life of the flies with Alzheimer's (Table 11).

[3] = system: HL-60 (myeloblastic leukaemia); assay: growth inhibition of human tumour cells, 72 h incubation; assay type: cell-based; settings: 72 hours of incubation
Protocol: as §1

Structure (SMILES)	ΔWeight, change in weight (body weight of SHR rats)	Geotaxis: age at which the animals showed a geotaxis of nil [2]	IC50 (A549 (lung))	IC50 (HepG2 (liver carcinoma))	IC50 (HT-29 (colon))	IC50 (SH-SY5Y (neuroblastoma))	IC50 [3]	IC50 (U87M (glioma))	IC50 (MIA-PaCa-2 (pancreas))	IC50 (SF767 (glioma))	IC50 (HeLa (cervix))	IC50 (BXPC3 (pancreas))	IC50 (NCI1975D (lung))	IC50 (MDA-MB231 (breast))	IC50 [1]	IC50 (PC3 (prostate))	also measured
CCCCCC(O)C(=O)OCC(COC(=O)C(O)CCCCC)OC(=O)C(O)CCCCC (stereo not shown) [TGM0, 1,2,3-tri(2′-hydroxyheptanoyl)glycerol]	-4 ± 2 g	25 days															IC50 (A549 (lung); Homo sapiens, A549): 121 µM; IC50 (HepG2 (liver carcinoma); Homo sapiens, HepG2): 326 µM; IC50 (HT-29 (colon); Homo sapiens, HT-29): 265 µM; IC50 (SH-SY5Y (neuroblastoma); Homo sapiens, SH-SY5Y): 253 µM; IC50 (U87M (glioma); Homo sapiens): 342 µM; IC50 (MIA-PaCa-2 (pancreas); Homo sapiens, MIA PaCa-2): 283 µM; IC50 (SF767 (glioma); Homo sapiens, SF767): 278 µM; IC50 (HeLa (cervix); Homo sapiens, HeLa): 199 µM; IC50 (BXPC3 (pancreas); Homo sapiens, BXPC-3): 297 µM; IC50 (NCI1975D (lung); Homo sapiens): 327 µM; IC50 (MDA-MB231 (breast); Homo sapiens, MDA-MB-231): 254 µM; IC50 ([1]; Homo sapiens, Jurkat): 176 µM; IC50 (PC3 (prostate); Homo sapiens): 231 µM
CCCCCC=CCC=CCC=CCC=CCCC(O)C(=O)OCC(COC(=O)C(O)CCC=CCC=CCC=CCC=CCCCCC)OC(=O)C(O)CCC=CCC=CCC=CCC=CCCCCC (stereo not shown) [TGM4, 1,2,3-tri(2′-hydroxy-eicosa-5′,8′,11′,14′-tetraenoyl)glycerol]	-25 ± 5 g	35 days	0.9 µM	22 µM	11 µM	27 µM	32 µM	17 µM	43 µM	21 µM	6 µM	72 µM	10 µM	36 µM	151 µM	18 µM	
CCCCCC=CCC=CCCCCCCC(O)C(=O)OCC(COC(=O)C(O)CCCCCCC=CCC=CCCCCC)OC(=O)C(O)CCCCCCC=CCC=CCCCCC (stereo not shown) [TGM2, 1,2,3-tri(2′-hydroxy-octadec-9′,12′-dienoyl)glycerol]	-32 ± 6 g	29 days	2 µM	25 µM	132 µM	74 µM	114 µM	56 µM	77 µM	31 µM	147 µM	31 µM	54 µM	57 µM	67 µM	42 µM	
CCCCCC=CCC=CCC=CCCCC(O)C(=O)OCC(COC(=O)C(O)CCCC=CCC=CCC=CCCCCC)OC(=O)C(O)CCCC=CCC=CCC=CCCCCC (stereo not shown) [TGM3G, 1,2,3-tri(2′-hydroxy-octadec-6′,9′,12′-trienoyl)glycerol]	-12 ± 3 g	29 days	39 µM	187 µM	59 µM	154 µM	42 µM	28 µM	123 µM	46 µM	75 µM	81 µM		187 µM	174 µM	94 µM	
CCC=CCC=CCC=CCCCCCCC(O)C(=O)OCC(COC(=O)C(O)CCCCCCC=CCC=CCC=CCC)OC(=O)C(O)CCCCCCC=CCC=CCC=CCC (stereo not shown) [TGM3A, 1,2,3-tri(2′-hydroxy-octadec-9′,12′,15′-trienoyl)glycerol]	-14 ± 4 g	36 days	43 µM	42 µM	187 µM	39 µM	58 µM	31 µM	142 µM	57 µM	164 µM	80 µM	64 µM	116 µM	95 µM	119 µM	
CCC=CCC=CCC=CCC=CCC=CCC=CCC(O)C(=O)OCC(COC(=O)C(O)CC=CCC=CCC=CCC=CCC=CCC=CCC)OC(=O)C(O)CC=CCC=CCC=CCC=CCC=CCC=CCC (stereo not shown) [TGM6, 1,2,3-tri(2′-hydroxy-docosa-4′,7′,10′,13′,16′,19′-hexanoyl)glycerol]	-19 ± 4 g	28 days	1 µM	30 µM	34 µM	7 µM	6 µM	36 µM	29 µM	41 µM	12 µM	18 µM	21 µM	9 µM	25 µM	5 µM	cognitive parameters in the climbing test (FIG. 7B) ([2]; compared with normal flies): practically indistinguishable from that observed in normal flies
CCC=CCC=CCC=CCC=CCC=CCCC(O)C(=O)OCC(COC(=O)C(O)CCC=CCC=CCC=CCC=CCC=CCC)OC(=O)C(O)CCC=CCC=CCC=CCC=CCC=CCC (stereo not shown) [TGM5, 1,2,3-tri(2′-hydroxy-eicosa-5′,8′,11′,14′,17′-pentaenoyl)glycerol]	-9 ± 3 g	26 days	4 µM	52 µM	8 µM	29 µM	13 µM	43 µM	23 µM	26 µM	19 µM	17 µM	14 µM	18 µM	9 µM	21 µM	
CCCCCCCCC=CCCCCCCC(O)C(=O)OCC(COC(=O)C(O)CCCCCCC=CCCCCCCCC)OC(=O)C(O)CCCCCCC=CCCCCCCCC (stereo not shown) [TGM1, 1,2,3-tri(2′-hydroxy-octadec-9′-enoyl)glycerol]	-22 ± 5 g	32 days	29 µM	87 µM	93 µM	129 µM	243 µM	257 µM	144 µM	282 µM	184 µM	211 µM	292 µM	128 µM	32 µM	240 µM	
